{
  "source": "paper PMC12175890",
  "about": "(Science Advances, 2025)",
  "molecular_target": "T1, BdPAPT-CD (Babesia duncani, UniProt A0AAD9PLN9)",
  "T1 sequence (A0AAD9PLN9 301-734)": "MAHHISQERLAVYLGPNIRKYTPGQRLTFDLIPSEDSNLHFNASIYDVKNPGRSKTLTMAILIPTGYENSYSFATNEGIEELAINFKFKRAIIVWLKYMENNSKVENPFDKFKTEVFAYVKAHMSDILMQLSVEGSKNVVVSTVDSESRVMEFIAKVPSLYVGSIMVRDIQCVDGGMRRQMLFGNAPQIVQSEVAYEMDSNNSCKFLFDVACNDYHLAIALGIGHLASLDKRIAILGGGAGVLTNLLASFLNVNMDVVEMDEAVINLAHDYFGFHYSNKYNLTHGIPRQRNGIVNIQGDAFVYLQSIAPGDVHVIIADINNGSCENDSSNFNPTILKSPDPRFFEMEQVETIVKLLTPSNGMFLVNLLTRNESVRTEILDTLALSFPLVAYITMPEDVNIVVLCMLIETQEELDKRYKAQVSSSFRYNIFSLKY",
  "assay": "TLC of spermidine formation",
  "type": "biochemical",
  "conditions": "0.1 mM dcSAM, 0.1 mM putrescine, 37 °C, potassium phosphate pH 7.5",
  "data": [
    {"smiles": "NCCCCN", "note": "[PUT]", "values": [
      {"measurement": "TLC of spermidine formation", "value": "efficient conversion of PUT to SPD by BdPAPT-Cterm and its CD"}
    ]}
  ]
}
